Test [1] deals with NCI-H2228 cell line. In words: CellTiter-Glo cell proliferation inhibition on NCI-H2228 cell line. It is filed as cell-based. The note with it: Homo sapiens, NCI-H2228 cells, 5000 cells/well, 4 days drug treatment. The gist of the method: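 NCI-H2228 cells, 5000/well in RPMI-1640 + 10% FBS, treated with compounds 2 h after seeding (0.5% DMSO final) for 4 days at 37° C. Viability by CellTiter-Glo luminescence; inhibition relative to DMSO control, IC50 from curve fit.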
A general note: In ATP-based viability assays light output follows the ATP content of the culture.

Test [2] concerns Karpas-299 cell line. The test can be described thus: CellTiter-Glo cell proliferation inhibition on Karpas-299 cell line. The conditions noted are these: Homo sapiens, 96 h, Karpas-299 cells, 5000 cells/well, 4 days drug treatment. Type of test: cell-based. In short, it runs like this:
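CellTiter-Glo luminescence measured after 4-day compound exposure (0.5% DMSO final) of Karpas-299 cells seeded at 5000/well in RPMI-1640 with 10% FBS, 37 °C, 5% CO2. IC50 derived from percent inhibition relative to vehicle wells.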

The structures appear in SMILES notation.

Broadly, the IC50 is the point on the concentration scale where inhibition reaches its midpoint. Low values mean greater potency in that assay, high ones weaker potency in that assay. In the case of `CC(C)S(=O)(=O)c1nn(C2CC2)cc1Nc1nc(Nc2ccc(C3CCN(C)CC3)cc2OC2CC2)ncc1Cl` [Final product 42], the IC50 in test [1] (NCI-H2228, 96 h) came to 29 nM; in test [2], 3 nM.
For `CC(C)CS(=O)(=O)c1nn(C)cc1Nc1nc(Nc2ccc(C3CCN(C)CC3)cc2OC2CC2)ncc1Cl` [Final product 43], the IC50 amounted to 125 nM in test [1] (NCI-H2228, 96 h) and 26 nM in test [2].
With `CC(C)S(=O)(=O)c1nn(C)cc1Nc1nc(Nc2cc(F)c(C3CCN(C)C3)cc2OC2CC2)ncc1Cl` (stereo not shown) [Final product 45], the IC50 came to 135 nM in test [1] (NCI-H2228, 96 h) and 19 nM in test [2].
As for `CC(C)S(=O)(=O)c1nn(C)cc1Nc1nc(Nc2cc(Cl)c(C3CCN(C)CC3)cc2OC2CC2)ncc1Cl` [Final product 47], the IC50 came out at 103 nM in test [1] (NCI-H2228, 96 h) and 15 nM in test [2].
For `CC(C)S(=O)(=O)c1nn(C2CC2)cc1Nc1nc(Nc2cc(Cl)c(C3CCN(C)CC3)cc2OC2CC2)ncc1Cl` [Final product 48], the IC50 turned out to be 115 nM in test [1] (NCI-H2228, 96 h) and 41 nM in test [2].
As for `CC(C)S(=O)(=O)c1nn(C)cc1Nc1nc(Nc2cc(C#N)c(C3CCN(C)CC3)cc2OC2CC2)ncc1Cl` [Final product 49], the IC50 amounted to 165 nM in test [1] (NCI-H2228, 96 h) and 100 nM in test [2].
On to `Cc1cc(Nc2ncc(Cl)c(Nc3cn(C)nc3S(=O)(=O)C(C)C)n2)c(OC2CC2)cc1C1=CCN(C)CC1` [Final product 50], for which the IC50 in test [1] (NCI-H2228, 96 h) worked out at 86 nM; in test [2], 11 nM.
Take `Cc1cc(Nc2ncc(Cl)c(Nc3cn(C)nc3S(=O)(=O)C(C)C)n2)c(OC2CC2)cc1C1CC(C)N(C)C(C)C1` (stereo not shown) [Final product 95]: the IC50 is 26 nM in test [1] (NCI-H2228, 96 h) and 4 nM in test [2].
On the same counts, the results for `Cc1cc(Nc2ncc(Cl)c(Nc3cn(C)nc3S(=O)(=O)C(C)C)n2)c(OC2CC2)cc1C1CCOCC1` [Final product 107] are 174 nM and 18 nM.
For the compound `Cc1cc(Nc2ncc(Cl)c(Nc3cn(C)nc3S(=O)(=O)C(C)C)n2)c(OC2CC2)cc1OC1CCN(C)CC1` [Final product 111], the IC50 in test [1] (NCI-H2228, 96 h) stood at 188 nM; in test [2], 16 nM.
Take `CCN1CCC(c2cc(OC(C)C)c(Nc3ncc(Cl)c(Nc4cn(C)nc4S(=O)(=O)C(C)C)n3)cc2C)CC1` [Final product 118]: the IC50 in test [1] (NCI-H2228, 96 h) was 101 nM; in test [2] it was 9 nM.
`Cc1cc(Nc2ncc(Cl)c(Nc3cn(C)nc3S(=O)(=O)C(C)C)n2)c(OC(C)C)cc1C1CCN(C(C)C)CC1` [Final product 126]: the IC50 in test [1] (NCI-H2228, 96 h) came out at 142 nM; in test [2], 12 nM.
As to `Cc1cc(Nc2ncc(Cl)c(Nc3cn(C)nc3S(=O)(=O)CC(C)C)n2)c(OC2CC2)cc1C1CCN(C(C)C)CC1` [Final product 127], the IC50 turned out to be 142 nM in test [1] (NCI-H2228, 96 h) and 30 nM in test [2].
Turning to `Cc1cc(Nc2ncc(Cl)c(Nc3cn(C)nc3S(=O)(=O)C(C)C)n2)c(OC2CC2)cc1C1CCN(CCO)CC1` [Final product 133, 2-(4-(4-(5-chloro-4-(3-(isopropylsulfonyl)-1-methyl-1H-pyrazol-4-amino)pyrimidin-2-amino)-5-cyclopropoxy-2-methylphenyl)piperidin-1-yl) ethanol], the IC50 was 41 nM in test [1] (96 h) and 4 nM in test [2].
For `CCOc1cc(C2CCN(CCO)CC2)c(C)cc1Nc1ncc(Cl)c(Nc2cn(C)nc2S(=O)(=O)C(C)C)n1` [Final product 135], the IC50 was 33 nM in test [1] (NCI-H2228, 96 h) and 3 nM in test [2].
Turning to `Cc1cc(Nc2ncc(Cl)c(Nc3cn(C)nc3S(=O)(=O)CC(C)C)n2)c(OC2CC2)cc1C1CCN(CCO)CC1` [Final product 137], the 50% inhibitory concentration (IC50) was 103 nM in test [1] (NCI-H2228, 96 h) and 12 nM in test [2].
Take `Cc1cc(Nc2ncc(Cl)c(Nc3cn(C)nc3S(=O)(=O)C(C)C)n2)c(OC2CCC2)cc1C1CCN(CCO)CC1` [Final product 138]: the IC50 in test [1] (NCI-H2228, 96 h) was 60 nM; in test [2], 6 nM.
On to `Cc1cc(Nc2ncc(Cl)c(Nc3cn(C)nc3S(=O)(=O)C(C)C)n2)c(OC2CC2)cc1C1CCN(CCN(C)C)CC1` [Final product 146, 5-chloro-N^2-(2-cyclopropoxy-4-(1-(2-(dimethylamino)ethyl)piperidin-4-yl)-5-methylphenyl)-N^4-(3-(isopropylsulfonyl)-1-methyl-1H-pyrazol-4-yl)-pyrimidin-2,4-diamine], for which the figures for the IC50 in test [1] (96 h) and in test [2] were 199 nM and 15 nM, respectively.
`Cc1cc(Nc2ncc(Cl)c(Nc3cn(C)nc3S(=O)(=O)C(C)C)n2)c(OC(C)C)cc1C1CCN(C(C)(C)CO)CC1` [Final product 152]: the IC50 is 86 nM in test [1] (NCI-H2228, 96 h) and 7 nM in test [2].
In the case of `Cc1cc(Nc2ncc(Cl)c(Nc3cn(C)nc3S(=O)(=O)C(C)C)n2)c(OC2CC2)cc1C1CCN(C2COC2)CC1` [Final product 156], the IC50 came to 44 nM in test [1] (NCI-H2228, 96 h) and 19 nM in test [2].
`Cc1cc(Nc2ncc(Cl)c(Nc3cn(C)nc3S(=O)(=O)C(C)C)n2)c(OC2CC2)cc1C1CCN(C2CC2)CC1` [Final product 157]: the IC50 was found to be 142 nM in test [1] (NCI-H2228, 96 h) and 13 nM in test [2].
In the case of `Cc1cc(Nc2ncc(Cl)c(Nc3cn(C)nc3S(=O)(=O)C(C)C)n2)c(OC2CC2)cc1C1CCN(C=O)CC1` [Final product 159, 4-(4-(5-chloro-4-(3-(isopropylsulfonyl)-1-methyl-1H-pyrazol-4-amino)pyrimidin-2-amino)-5-cyclopropoxy-2-methylphenyl)piperidin-1-formaldehyde], the IC50 in test [1] (NCI-H2228, 96 h) stood at 43 nM; in test [2], 11 nM.
Turning to `CC(=O)N1CCC(c2cc(OC3CC3)c(Nc3ncc(Cl)c(Nc4cn(C)nc4S(=O)(=O)C(C)C)n3)cc2C)CC1` [Final product 160, 1-acetyl-4-(4-(5-chloro-4-(3-(isopropylsulfonyl)-1-methyl-1H-pyrazol-4-amino)pyrimidin-2-amine)-5-cyclopropoxy-2-methylphenyl)piperidine], the IC50 in test [1] (NCI-H2228, 96 h) amounted to 35 nM; in test [2], 14 nM.
Regarding `Cc1cc(Nc2ncc(Cl)c(Nc3cn(C)nc3S(=O)(=O)C(C)C)n2)c(OC2CC2)cc1C1CCN(C(=O)C(F)(F)F)CC1` [Final product 161, 1-trifluoroacetyl-4-(4-(5-chloro-4-(3-(isopropylsulfonyl)-1-methyl-1H-pyrazol-4-amino)pyrimidin-2-amine)-5-cyclopropoxy-2-methylphenyl)piperidine], the IC50 in test [1] (NCI-H2228, 96 h) worked out at 47 nM; in test [2], 27 nM.
In the same order, the values of `Cc1cc(Nc2ncc(Cl)c(Nc3cn(C)nc3S(=O)(=O)C(C)C)n2)c(OC2CC2)cc1C1CCN(C(=O)C2CC2)CC1` [Final product 162, 1-cyclopropylformyl-4-(4-(5-chloro-4-(3-(isopropylsulfonyl)-1-methyl-1H-pyrazol-4-amino)pyrimidin-2-amine)-5-cyclopropoxy-2-methylphenyl)piperidine] are 34 nM and 24 nM.
With `Cc1cc(Nc2ncc(Cl)c(Nc3cn(C)nc3S(=O)(=O)C(C)C)n2)c(OC2CC2)cc1C1CCN(C(=O)C(C)(C)C)CC1` [Final product 164, 1-pivaloyl-4-(4-(5-chloro-4-(3-(isopropylsulfonyl)-1-methyl-1H-pyrazol-4-amino)pyrimidin-2-amine)-5-cyclopropoxy-2-methylphenyl)piperidine], the IC50 in test [1] (NCI-H2228, 96 h) was 87 nM; in test [2], 15 nM.

The values are drawn from patent US10023593B2, “ALK kinase inhibitor, and preparation method and uses thereof” (BEIJING PEARL BIOTECHNOLOGY LIMITED LIABILITY COMPANY, priority 2014, dated 2018).
